Test results: US10358463B2, “Immunomodulators” (BRISTOL-MYERS SQUIBB COMPANY, priority 2016, dated 2019)
Numbered stars: 1 amine (or outer) side, 2 acyl side, 3 side chain; on linkers, the order of the positions; unused ones are H or OH. Bridge positions count the residues as written; N and C are the ends. Square brackets hold non-standard residues; d marks the D form. Peptide text beside a SMILES is read from it. ξ: configuration not given here. Trp(1-CH2CONHSO2Me) = CS(=O)(=O)NC(=O)Cn1cc(C[C@H](N)C(=O)O)c2ccccc21; X1 = O=C(O)Cn1c(C(=O)O)c(C[C@H](N[*:1])C(=O)[*:2])c2ccccc21; X9 = O=C(O)Cn1cc(CC(N[*:1])C(=O)[*:2])c2cnccc21; X4 = Cc1cccc2c(CC(N[*:1])C(=O)[*:2])n[nH]c12; X6 = O=C([C@H](Cc1ccc2cnccc2c1)N[*:1])[*:2]; Phe(4-Cl) = N[C@@H](Cc1ccc(Cl)cc1)C(=O)O; Phe(4-F) = N[C@@H](Cc1ccc(F)cc1)C(=O)O; Hyp = O=C(O)[C@@H]1C[C@@H](O)CN1; NMeNle = CCCC[C@H](NC)C(=O)O; Pen = CC(C)(S)[C@H](N)C(=O)O; Pip = O=C(O)[C@@H]1CCCCN1; NMeA = CN[C@@H](C)C(=O)O; Dab = NCC[C@H](N)C(=O)O; Dap = NC[C@H](N)C(=O)O; ξP = O=C(O)C1CCCN1

Each compound was assayed against T1, PD-1-Ig binding to PD-L1-TVMV-His (PD-L1-His) (Homo sapiens, UniProt Q9NZQ7) (assay: PD-1/PD-L1 Homogenous Time-Resolved Fluorescence (HTRF) binding assay). Conditions: PD-1-Ig (20 nM)/PD-L1-His (10 nM); numeric value.
T1 construct: hPDL1 (19-239)-TVMV-His; TVMV protease cleavage site (C); made in house; host or cells: HEK293T cells
T1 sequence (Q9NZQ7 with tags, fused parts or gaps): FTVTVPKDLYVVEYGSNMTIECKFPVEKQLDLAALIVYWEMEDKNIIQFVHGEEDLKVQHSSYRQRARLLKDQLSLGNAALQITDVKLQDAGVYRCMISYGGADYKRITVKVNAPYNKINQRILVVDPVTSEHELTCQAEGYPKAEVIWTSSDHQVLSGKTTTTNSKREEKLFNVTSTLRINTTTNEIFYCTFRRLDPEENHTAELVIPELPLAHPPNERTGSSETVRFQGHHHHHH
Source text: The ability of the macrocyclic peptides of the present disclosure to bind to PD-L1 was investigated using a PD-1/PD-L1 Homogenous Time-Resolved Fluorescence (HTRF) binding assay.
Homogenous Time-Resolved Fluorescence (HTRF) Assays of Binding of Soluble PD-1 to Soluble PD-L1. Soluble PD-1 and soluble PD-L1 refers to proteins with carboxyl-end truncations that remove the transmembrane-spanning regions and are fused to heterologous sequences, specifically the Fc portion of the human immunoglobuling G sequence (Ig) or the hexahistidine epitope tag (His). All binding studies were performed in an HTRF assay buffer consisting of dPBS supplemented with 0.1% (w/v) bovine serum albumin and 0.05% (v/v) Tween-20. For the PD-1-Ig/PD-L1-His binding assay, inhibitors were pre-incubated with PD-L1-His (10 nM final) for 15 m in 4 μl of assay buffer, followed by addition of PD-1-Ig (20 nM final) in 1 μl of assay buffer and further incubation for 15 m. PD-L1 fusion proteins from either human, cynomologous macaques, mouse, or other species were used. HTRF detection was achieved using europium crypate-labeled anti-Ig monoclonal antibody (1 nM final) and allophycocyanin (APC) labeled anti-His monoclonal antibody (20 nM final). Antibodies were diluted in HTRF detection buffer and 5 μl was dispensed on top of binding reaction. The reaction was allowed to equilibrate for 30 minutes and signal (665 nm/620 nm ratio) was obtained using an EnVision fluorometer. Additional binding assays were established between PD-1-Ig/PD-L2-His (20 and 5 nM, respectively), CD80-His/PD-L1-Ig (100 and 10 nM, respectively) and CD80-His/CTLA4-Ig (10 and 5 nM, respectively). Binding/competition studies between biotinylated Compound No. 71 and human PD-L1-His were performed as follows. Macrocyclic peptide inhibitors were pre-incubated with PD-L1-His (10 nM final) for 60 minutes in 4 μl of assay buffer followed by addition of biotinylated Compound No. 71 (0.5 nM final) in 1 μl of assay buffer. Binding was allowed to equilibrate for 30 minutes followed by addition of europium crylated labeled Streptavidin (2.5 pM final) and APC-labeled anti-His (20 nM final) in 5 μl of HTRF buffer. The reaction was allowed to equilibrate for 30 m and signal (665 nm/620 nm ratio) was obtained using an EnVision fluorometer.
Recombinant Proteins. Carboxyl-truncated human PD-1 (amino acids 25-167) with a C-terminal human Ig epitope tag [hPD-1 (25-167)-3S-IG] and human PD-L1 (amino acids 18-239) with a C-terminal His epitope tag [hPD-L1(19-239)-tobacco vein mottling virus protease cleavage site (TVMV)-His] were expressed in HEK293T cells and purified sequentially by recombinant Protein A affinity chromatography and size exclusion chromatography. Human PD-L2-His (Sino Biologicals), CD80-His (Sino Biologicals), CTLA4-Ig (RnD Systems) were all obtained through commercial sources.

| IC50 | SMILES |
| --- | --- |
| 7140 nM | CCCC[C@H]1C(=O)N(C)[C@@H](CCCC)C(=O)N[C@@H](C)C(=O)N[C@H](C(=O)NCC(N)=O)CSCC(=O)N[C@@H](Cc2ccc(O)cc2)C(=O)N(C)[C@@H](C)C(=O)N[C@@H](CC(N)=O)C(=O)N2CCCC2C(=O)N[C@@H](Cc2cnc[nH]2)C(=O)N[C@@H](CCC(N)=O)C(=O)N2C[C@H](O)C[C@H]2C(=O)N[C@@H](Cc2c[nH]c3ccccc23)C(=O)N[C@@H](CO)C(=O)NC(Cc2n[nH]c3c(C)cccc23)C(=O)N1C (stereo partly drawn) [Example 1288] ({CH2CO}-Y[NMeA]N[ξP]HQ[Hyp]WS[X4][NMeNle][NMeNle]ACG-NH2; thioether N-14) |

Same assay, conditions: PD-1-Ig (20 nM)/PD-L1-His (10 nM); range class

| IC50 | SMILES |
| --- | --- |
| 100 to 990 nM | CCCC[C@H]1C(=O)N(C)[C@@H](CCCC)C(=O)N[C@@H](CCCNC(=N)N)C(=O)N[C@H](C(=O)NCC(N)=O)CSCC(=O)N[C@@H](Cc2ccc(O)cc2)C(=O)N(C)[C@@H](C)C(=O)N[C@@H](CC(N)=O)C(=O)N2CCC[C@H]2C(=O)N[C@@H](Cc2cnc[nH]2)C(=O)N[C@@H](CC(C)C)C(=O)N2C[C@H](O)C[C@H]2C(=O)N[C@@H](Cc2c[nH]c3ccccc23)C(=O)N[C@@H](CO)C(=O)N[C@@H](Cc2ccc3cnccc3c2)C(=O)N1C [Example 0001] ({CH2CO}-Y[NMeA]NPHL[Hyp]WS[X6][NMeNle][NMeNle]RCG-NH2; thioether N-14) |
| 1 to 9.9 nM | CCCC[C@H]1C(=O)N(C)[C@@H](CCCC)C(=O)N[C@@H](CC(C)C)C(=O)N[C@H](C(N)=O)C(C)(C)SCC(=O)N[C@@H](Cc2ccc(Cl)cc2)C(=O)N2CCCC[C@H]2C(=O)N[C@@H](CC(=O)O)C(=O)N2CCC[C@H]2C(=O)N[C@@H](Cc2cnc[nH]2)C(=O)N[C@@H](CCC(=O)O)C(=O)N2C[C@H](O)C[C@H]2C(=O)N[C@@H](Cc2c[nH]c3ccccc23)C(=O)N[C@@H](CCN)C(=O)N[C@@H](Cc2cn(CC(=O)NS(C)(=O)=O)c3ccccc23)C(=O)N1C [Example 1008] ({CH2CO}-[Phe(4-Cl)][Pip]DPHE[Hyp]W[Dab][Trp(1-CH2CONHSO2Me)][NMeNle][NMeNle]L[Pen]-NH2; thioether N-14) |
| 10 to 99 nM | CCCC[C@H]1C(=O)N(C)[C@@H](CCCC)C(=O)N[C@@H](CC(C)C)C(=O)N[C@H](C(=O)NCC(N)=O)CSCC(=O)N[C@@H](Cc2ccc(O)cc2)C(=O)N(C)[C@@H](C)C(=O)N[C@@H](CC(N)=O)C(=O)N2CCC[C@H]2C(=O)N[C@@H](CN)C(=O)N[C@@H](CC(C)C)C(=O)N2C[C@H](O)C[C@H]2C(=O)N[C@@H](Cc2c[nH]c3ccccc23)C(=O)N[C@@H](CCN)C(=O)N[C@@H](Cc2c(C(=O)O)n(CC(=O)O)c3ccccc23)C(=O)N1C [Example 1013] ({CH2CO}-Y[NMeA]NP[Dap]L[Hyp]W[Dab][X1][NMeNle][NMeNle]LCG-NH2; thioether N-14) |
| 1 to 9.9 nM | CCCC[C@H]1C(=O)N(C)[C@@H](CCCC)C(=O)N[C@@H](CC(C)C)C(=O)N[C@H](C(N)=O)C(C)(C)SCC(=O)N[C@@H](Cc2ccc(F)cc2)C(=O)N2CCCC[C@H]2C(=O)N[C@@H](CC(=O)O)C(=O)N2CCC[C@H]2C(=O)N[C@@H](Cc2cnc[nH]2)C(=O)N[C@@H](CCC(=O)O)C(=O)N2C[C@H](O)C[C@H]2C(=O)N[C@@H](Cc2c[nH]c3ccccc23)C(=O)N[C@@H](CCN)C(=O)N[C@@H](Cc2cn(CC(=O)NS(C)(=O)=O)c3ccccc23)C(=O)N1C [Example 1006] ({CH2CO}-[Phe(4-F)][Pip]DPHE[Hyp]W[Dab][Trp(1-CH2CONHSO2Me)][NMeNle][NMeNle]L[Pen]-NH2; thioether N-14) |
| 10 to 99 nM | CCCC[C@H]1C(=O)N(C)[C@@H](CCCC)C(=O)N[C@@H](CC(C)C)C(=O)N[C@H](C(=O)NCC(N)=O)CSCC(=O)N[C@@H](Cc2ccc(O)cc2)C(=O)N(C)[C@@H](C)C(=O)N[C@@H](CC(N)=O)C(=O)N2CCC[C@H]2C(=O)N[C@@H](CN)C(=O)N[C@@H](CC(C)C)C(=O)N2C[C@H](O)C[C@H]2C(=O)N[C@@H](Cc2c[nH]c3ccccc23)C(=O)N[C@@H](CCN)C(=O)NC(Cc2cn(CC(=O)O)c3ccncc23)C(=O)N1C (stereo partly drawn) [Example 10001] ({CH2CO}-Y[NMeA]NP[Dap]L[Hyp]W[Dab][X9][NMeNle][NMeNle]LCG-NH2; thioether N-14) |
